Drawing on ChEMBL document CHEMBL5696441 (Nat Chem Biol, 2011), this text covers Activity and IC50 for one molecule.

Experiment [1] concerns the target Calcium/calmodulin-dependent protein kinase type II subunit gamma (Homo sapiens) (UniProt Q13555). Briefly: Inhibition of CAMK2G (unknown origin) assessed as remaining activity at 1 uM by Kinome scan method relative to control.
In experiment [2] the target is T1, Ephrin type-A receptor 3 (Homo sapiens) (UniProt P29320).
T1 sequence (whole entry): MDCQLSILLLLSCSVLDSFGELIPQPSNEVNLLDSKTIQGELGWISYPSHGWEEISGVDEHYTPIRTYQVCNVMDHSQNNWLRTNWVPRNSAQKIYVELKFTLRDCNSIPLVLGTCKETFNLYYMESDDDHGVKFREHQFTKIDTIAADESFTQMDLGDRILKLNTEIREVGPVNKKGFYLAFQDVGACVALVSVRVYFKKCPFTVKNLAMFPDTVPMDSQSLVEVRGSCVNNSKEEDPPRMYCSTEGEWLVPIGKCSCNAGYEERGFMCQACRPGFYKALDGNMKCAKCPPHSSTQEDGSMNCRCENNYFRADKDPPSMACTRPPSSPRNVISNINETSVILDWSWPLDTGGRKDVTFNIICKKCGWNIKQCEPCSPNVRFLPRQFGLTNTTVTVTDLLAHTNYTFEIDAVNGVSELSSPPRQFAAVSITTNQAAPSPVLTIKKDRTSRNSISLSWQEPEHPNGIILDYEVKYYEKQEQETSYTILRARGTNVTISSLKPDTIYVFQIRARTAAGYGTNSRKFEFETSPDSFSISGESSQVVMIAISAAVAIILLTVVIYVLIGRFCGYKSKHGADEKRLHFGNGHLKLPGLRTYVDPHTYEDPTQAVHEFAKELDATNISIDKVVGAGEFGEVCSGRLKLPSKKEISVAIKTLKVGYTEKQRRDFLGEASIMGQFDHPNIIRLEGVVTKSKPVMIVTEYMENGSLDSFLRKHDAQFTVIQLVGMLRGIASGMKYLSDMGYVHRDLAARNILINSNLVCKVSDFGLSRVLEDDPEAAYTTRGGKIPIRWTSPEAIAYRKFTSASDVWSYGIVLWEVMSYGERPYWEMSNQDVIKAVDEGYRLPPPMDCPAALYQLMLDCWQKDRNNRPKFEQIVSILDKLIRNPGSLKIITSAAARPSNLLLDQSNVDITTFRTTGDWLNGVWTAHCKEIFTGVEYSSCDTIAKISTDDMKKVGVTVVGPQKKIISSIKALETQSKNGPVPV
Briefly: Inhibition of human EPHA3 assessed as residual activity at 1 uM using polyEY as substrate in presence of 33P-ATP by ProQinase assay relative to control.

The nature of experiment [3]: Anti-inflammatory activity against human derived medium respond PBMC cells assessed as inhibition in stimulated TNF-alpha cytokine release incubated for 2 hrs in the presence of LPS/SEB/aCD28 by Luminex based sandwich immunoassay. The experiment is classed as functional, cell-based.
For experiment [4], the target named is Ribosomal protein S6 kinase alpha-5 (Homo sapiens) (UniProt O75582). Briefly: Inhibition of human RPS6KA5 assessed as residual activity at 1 uM using RBER-CHKtide as substrate in presence of 33P-ATP by ProQinase assay relative to control.
The subject of experiment [5] is Tyrosine-protein kinase ABL1 (Homo sapiens), P00519 [Q252H]. Description: Inhibition of ABL1 Q252H mutant (unknown origin) assessed as remaining activity at 1 uM by Kinome scan method relative to control.
For experiment [6], the system named is Fibroblast growth factor receptor 3 (Homo sapiens), P22607 [G697C]. Description: Inhibition of FGFR3 G697C mutant (unknown origin) assessed as remaining activity at 1 uM by Kinome scan method relative to control.
Sequence of Fibroblast growth factor receptor 3 (Homo sapiens), P22607 [G697C] (P22607 whole entry G697C): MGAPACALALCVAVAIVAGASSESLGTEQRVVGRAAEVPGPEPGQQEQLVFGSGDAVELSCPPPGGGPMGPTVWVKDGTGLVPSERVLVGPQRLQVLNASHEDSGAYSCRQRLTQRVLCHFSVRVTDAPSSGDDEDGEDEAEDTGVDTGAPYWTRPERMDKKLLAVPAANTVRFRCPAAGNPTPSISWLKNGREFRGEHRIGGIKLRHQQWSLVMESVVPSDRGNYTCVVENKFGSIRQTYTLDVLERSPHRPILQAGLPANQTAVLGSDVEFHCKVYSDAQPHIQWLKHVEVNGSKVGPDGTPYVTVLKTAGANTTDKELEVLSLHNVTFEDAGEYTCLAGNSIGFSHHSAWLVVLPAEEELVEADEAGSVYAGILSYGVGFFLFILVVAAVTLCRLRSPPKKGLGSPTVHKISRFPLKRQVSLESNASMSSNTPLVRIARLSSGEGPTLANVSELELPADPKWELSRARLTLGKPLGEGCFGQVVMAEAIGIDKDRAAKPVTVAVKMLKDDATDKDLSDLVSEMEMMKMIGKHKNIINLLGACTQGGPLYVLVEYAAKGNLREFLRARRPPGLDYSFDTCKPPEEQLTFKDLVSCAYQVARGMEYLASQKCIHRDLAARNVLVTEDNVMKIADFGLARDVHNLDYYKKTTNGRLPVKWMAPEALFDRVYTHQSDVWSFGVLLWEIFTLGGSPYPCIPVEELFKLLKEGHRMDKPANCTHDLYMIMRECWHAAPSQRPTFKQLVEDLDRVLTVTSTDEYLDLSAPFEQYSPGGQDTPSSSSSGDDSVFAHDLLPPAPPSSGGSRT
Experiment [7] concerns the target Ephrin type-A receptor 8 (Homo sapiens) (UniProt P29322). Briefly: Inhibition of EPHA8 (unknown origin) assessed as remaining activity at 1 uM by Kinome scan method relative to control.
For experiment [8], the target named is Focal adhesion kinase 1 (Homo sapiens) (UniProt Q05397). Briefly: Inhibition of FAK (unknown origin) assessed as remaining activity at 1 uM by Kinome scan method relative to control.
Experiment [9] relates to Serine/threonine-protein kinase B-raf (Homo sapiens), P15056 [V600E]. Description: Inhibition of BRAF V600E mutant (unknown origin) assessed as remaining activity at 1 uM by Kinome scan method relative to control.
Sequence of Serine/threonine-protein kinase B-raf (Homo sapiens), P15056 [V600E] (P15056 whole entry V600E): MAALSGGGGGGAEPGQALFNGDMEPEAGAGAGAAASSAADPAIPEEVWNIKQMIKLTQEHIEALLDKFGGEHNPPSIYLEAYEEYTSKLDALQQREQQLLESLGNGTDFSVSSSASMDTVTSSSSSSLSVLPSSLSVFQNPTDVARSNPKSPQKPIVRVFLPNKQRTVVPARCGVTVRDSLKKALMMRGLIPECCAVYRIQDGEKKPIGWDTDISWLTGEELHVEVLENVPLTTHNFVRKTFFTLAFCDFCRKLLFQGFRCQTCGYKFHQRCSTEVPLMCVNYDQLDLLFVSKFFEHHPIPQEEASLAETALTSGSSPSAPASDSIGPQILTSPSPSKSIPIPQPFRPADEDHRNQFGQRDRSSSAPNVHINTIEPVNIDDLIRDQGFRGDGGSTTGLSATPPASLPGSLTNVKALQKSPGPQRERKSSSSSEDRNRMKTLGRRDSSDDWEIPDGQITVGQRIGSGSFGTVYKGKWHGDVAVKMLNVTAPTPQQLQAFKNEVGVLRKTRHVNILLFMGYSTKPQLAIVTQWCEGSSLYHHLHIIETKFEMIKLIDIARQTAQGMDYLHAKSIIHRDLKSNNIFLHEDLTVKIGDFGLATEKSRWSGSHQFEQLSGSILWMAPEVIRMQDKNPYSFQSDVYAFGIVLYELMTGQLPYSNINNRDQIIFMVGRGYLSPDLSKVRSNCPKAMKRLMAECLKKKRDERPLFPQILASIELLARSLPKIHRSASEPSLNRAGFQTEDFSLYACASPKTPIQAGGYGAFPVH
Experiment [10] concerns the target Calcium/calmodulin-dependent protein kinase type 1 (Homo sapiens) (UniProt Q14012). Briefly: Inhibition of CAMK1 (unknown origin) assessed as remaining activity at 1 uM by Kinome scan method relative to control.
For experiment [11], the target named is Dual specificity protein kinase CLK2 (Homo sapiens) (UniProt P49760). Briefly: Inhibition of human CLK2 assessed as residual activity at 1 uM using RBER-GSK3 as substrate in presence of 33P-ATP by ProQinase assay relative to control.
Sequence of Dual specificity protein kinase CLK2 (Homo sapiens) (P49760 whole entry, looked up): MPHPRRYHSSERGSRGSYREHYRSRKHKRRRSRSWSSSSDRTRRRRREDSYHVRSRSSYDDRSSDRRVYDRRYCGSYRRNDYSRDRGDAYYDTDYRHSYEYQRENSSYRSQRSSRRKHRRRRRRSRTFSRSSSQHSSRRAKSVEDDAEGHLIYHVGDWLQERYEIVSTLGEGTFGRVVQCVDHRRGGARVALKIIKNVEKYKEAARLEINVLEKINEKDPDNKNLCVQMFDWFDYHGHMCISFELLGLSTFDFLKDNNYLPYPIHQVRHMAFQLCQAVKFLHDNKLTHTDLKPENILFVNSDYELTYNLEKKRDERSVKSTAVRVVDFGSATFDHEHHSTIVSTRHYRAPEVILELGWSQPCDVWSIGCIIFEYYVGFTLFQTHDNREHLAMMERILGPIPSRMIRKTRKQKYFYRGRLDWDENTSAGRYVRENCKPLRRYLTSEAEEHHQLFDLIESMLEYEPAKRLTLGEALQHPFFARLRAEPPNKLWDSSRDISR
Experiment [12] addresses NUAK family SNF1-like kinase 1 (Homo sapiens) (UniProt O60285). Description: Inhibition of ARK5 (unknown origin) assessed as remaining activity at 1 uM by Kinome scan method relative to control.
For experiment [13], the target named is Myosin-IIIa (Homo sapiens) (UniProt Q8NEV4). Description: Inhibition of MYO3A (unknown origin) assessed as remaining activity at 1 uM by Kinome scan method relative to control.
Sequence of Myosin-IIIa (Homo sapiens) (Q8NEV4 whole entry): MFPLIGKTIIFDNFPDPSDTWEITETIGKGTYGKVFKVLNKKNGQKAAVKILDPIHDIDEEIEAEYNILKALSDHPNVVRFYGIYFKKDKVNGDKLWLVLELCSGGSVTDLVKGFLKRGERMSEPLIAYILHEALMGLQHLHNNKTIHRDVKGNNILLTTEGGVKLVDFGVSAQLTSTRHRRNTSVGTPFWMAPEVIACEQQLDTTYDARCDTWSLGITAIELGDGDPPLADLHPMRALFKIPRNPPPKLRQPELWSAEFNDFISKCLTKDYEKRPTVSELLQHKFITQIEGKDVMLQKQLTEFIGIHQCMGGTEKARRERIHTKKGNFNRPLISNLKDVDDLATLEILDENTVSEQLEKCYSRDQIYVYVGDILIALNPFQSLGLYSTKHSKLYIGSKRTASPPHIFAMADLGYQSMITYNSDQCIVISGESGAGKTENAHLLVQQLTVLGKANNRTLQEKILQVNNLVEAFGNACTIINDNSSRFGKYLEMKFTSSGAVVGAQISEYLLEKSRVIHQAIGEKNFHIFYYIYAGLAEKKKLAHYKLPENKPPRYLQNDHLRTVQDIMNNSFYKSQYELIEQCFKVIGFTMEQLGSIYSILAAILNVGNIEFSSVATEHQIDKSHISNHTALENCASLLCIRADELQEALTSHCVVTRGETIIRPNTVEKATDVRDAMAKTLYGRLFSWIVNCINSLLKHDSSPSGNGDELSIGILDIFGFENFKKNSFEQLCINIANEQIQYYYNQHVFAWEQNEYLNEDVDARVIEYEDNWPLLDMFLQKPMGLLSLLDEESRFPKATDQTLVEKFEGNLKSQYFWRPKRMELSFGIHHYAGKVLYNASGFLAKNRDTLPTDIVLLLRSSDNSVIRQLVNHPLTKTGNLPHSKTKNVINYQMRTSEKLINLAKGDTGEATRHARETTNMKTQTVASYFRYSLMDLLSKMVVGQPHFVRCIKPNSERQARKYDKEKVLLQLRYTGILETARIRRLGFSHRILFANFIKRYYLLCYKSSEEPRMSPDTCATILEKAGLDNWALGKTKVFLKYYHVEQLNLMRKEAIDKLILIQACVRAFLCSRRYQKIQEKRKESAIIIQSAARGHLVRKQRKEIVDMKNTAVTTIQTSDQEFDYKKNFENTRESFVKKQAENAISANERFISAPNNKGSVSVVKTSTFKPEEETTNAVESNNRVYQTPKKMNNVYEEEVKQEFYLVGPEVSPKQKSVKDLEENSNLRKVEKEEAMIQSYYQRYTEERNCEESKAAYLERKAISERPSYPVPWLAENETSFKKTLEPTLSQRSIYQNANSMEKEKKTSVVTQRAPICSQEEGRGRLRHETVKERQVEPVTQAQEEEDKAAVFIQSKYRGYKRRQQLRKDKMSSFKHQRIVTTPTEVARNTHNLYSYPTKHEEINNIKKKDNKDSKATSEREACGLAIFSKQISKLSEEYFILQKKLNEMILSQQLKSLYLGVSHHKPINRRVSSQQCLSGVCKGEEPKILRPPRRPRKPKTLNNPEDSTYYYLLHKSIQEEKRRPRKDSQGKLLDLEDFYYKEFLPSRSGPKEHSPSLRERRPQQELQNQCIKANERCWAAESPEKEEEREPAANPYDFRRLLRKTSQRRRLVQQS
The next experiment has as its system PBMC. Description: Anti-inflammatory activity against human derived medium respond PBMC cells assessed as increase in stimulated IL-12p70 cytokine release at 1 uM incubated for 2 hrs in the presence of LPS/SEB/aCD28 by Luminex based sandwich immunoassay. The experiment is classed as functional, cell-based.
Experiment [14] addresses Mitogen-activated protein kinase 6 (Homo sapiens) (UniProt Q16659). Briefly: Inhibition of ERK3 (unknown origin) assessed as remaining activity at 1 uM by Kinome scan method relative to control.
A further experiment is filed under the species Homo sapiens. Description: Inhibition of human PKA assessed as residual activity at 1 uM using bio-4xCHKT as substrate in presence of 33P-ATP by ProQinase assay relative to control.
The target in experiment [15] is Serine/threonine-protein kinase 16 (Homo sapiens) (UniProt O75716). Briefly: Inhibition of human TSF1 assessed as residual activity at 1 uM using casein as substrate in presence of 33P-ATP by ProQinase assay relative to control.
Experiment [16] deals with Tyrosine-protein kinase FRK (Homo sapiens) (UniProt P42685). Briefly: Inhibition of FRK (unknown origin) assessed as remaining activity at 1 uM by Kinome scan method relative to control.
Experiment [17] in a line: Anti-inflammatory activity against human derived medium respond PBMC cells assessed as inhibition in stimulated INFgamma cytokine release incubated for 2 hrs in the presence of LPS/SEB/aCD28 by Luminex based sandwich immunoassay. The experiment is classed as functional, cell-based.
In experiment [18] the target is Ribosomal protein S6 kinase alpha-2 (Homo sapiens) (UniProt Q15349). Briefly: Inhibition of C-terminal kinase domain RPS6KA2 (unknown origin) assessed as remaining activity at 1 uM by Kinome scan method relative to control.
Sequence of Ribosomal protein S6 kinase alpha-2 (Homo sapiens) (Q15349 whole entry, the tested form may be a part): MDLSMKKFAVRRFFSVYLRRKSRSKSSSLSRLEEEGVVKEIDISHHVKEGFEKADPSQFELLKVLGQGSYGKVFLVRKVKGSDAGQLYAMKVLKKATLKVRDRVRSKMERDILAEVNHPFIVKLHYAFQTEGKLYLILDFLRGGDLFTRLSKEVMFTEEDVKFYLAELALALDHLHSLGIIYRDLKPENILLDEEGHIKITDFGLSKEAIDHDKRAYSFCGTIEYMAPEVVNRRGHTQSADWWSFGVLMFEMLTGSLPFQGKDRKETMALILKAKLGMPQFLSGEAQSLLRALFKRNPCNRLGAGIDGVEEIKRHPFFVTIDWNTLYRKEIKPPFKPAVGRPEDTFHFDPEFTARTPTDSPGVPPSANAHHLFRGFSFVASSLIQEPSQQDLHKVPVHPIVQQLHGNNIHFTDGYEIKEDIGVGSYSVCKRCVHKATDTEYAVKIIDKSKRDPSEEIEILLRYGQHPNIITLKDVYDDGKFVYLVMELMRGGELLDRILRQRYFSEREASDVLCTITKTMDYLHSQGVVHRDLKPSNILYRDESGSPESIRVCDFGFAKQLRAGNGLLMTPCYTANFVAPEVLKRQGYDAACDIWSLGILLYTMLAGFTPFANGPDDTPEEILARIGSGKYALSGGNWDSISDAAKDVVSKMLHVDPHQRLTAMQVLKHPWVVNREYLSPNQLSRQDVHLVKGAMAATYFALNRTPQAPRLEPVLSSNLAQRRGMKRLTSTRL
For experiment [19], the system named is Receptor-type tyrosine-protein kinase FLT3 (Homo sapiens), P36888 [D835H]. Description: Inhibition of FLT3 D835H mutant (unknown origin) assessed as remaining activity at 1 uM by Kinome scan method relative to control.
The nature of experiment [20]: Anti-inflammatory activity against human derived medium respond PBMC cells assessed as inhibition in stimulated IL-13 cytokine release incubated for 2 hrs in the presence of LPS/SEB/aCD28 by Luminex based sandwich immunoassay. The experiment is classed as functional, cell-based.

Calls of active or inactive are those of the source. No cut-off for these calls is given here.

Sequence of Calcium/calmodulin-dependent protein kinase type 1 (Homo sapiens) (Q14012 whole entry, looked up): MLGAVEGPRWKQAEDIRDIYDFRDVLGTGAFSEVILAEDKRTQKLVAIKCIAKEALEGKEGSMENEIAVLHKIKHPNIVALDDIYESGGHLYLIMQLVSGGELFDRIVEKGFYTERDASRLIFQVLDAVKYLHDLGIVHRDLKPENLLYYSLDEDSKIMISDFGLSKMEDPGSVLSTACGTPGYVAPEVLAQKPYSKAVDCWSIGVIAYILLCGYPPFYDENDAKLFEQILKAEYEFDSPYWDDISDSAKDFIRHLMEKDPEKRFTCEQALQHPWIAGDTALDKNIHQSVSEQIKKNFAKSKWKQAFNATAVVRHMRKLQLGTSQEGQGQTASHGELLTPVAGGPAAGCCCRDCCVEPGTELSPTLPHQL

A word on the IC50: it is the midpoint of a concentration-inhibition curve. As for `O=C1c2ccc(Nc3ccc(F)cc3F)cc2CCc2ccc(OC[C@H](O)CO)cc21` [Skepinone-L], the Activity in experiment [1] was 100%; in [2], 107%; in experiment [4], 77%; in [5], 93%; in experiment [6], 87%; in [7], 90%. For the same molecule, the Activity amounted to 100% in experiment [8]; 100% in experiment [9]; 100% in [10]; 89% in experiment [11]; 100% in experiment [12]; 89% in experiment [13]. Moreover, the Activity is 100% in experiment [14]; 94% in the experiment filed under Homo sapiens; 94% in experiment [15]; 100% in experiment [16]; 100% in experiment [18]; 88% in experiment [19]. In addition, the IC50 in experiment [3] stood at 860 nM; in experiment [17], 300 nM; in experiment [20] it was 4380 nM. Moreover, the outcome in the experiment on PBMC was Active.
